Reference: US9737073B2, “Herbicidal weed control from combinations of fluroxypyr and ALS inhibitors” (Dow AgroSciences LLC, priority 2014, dated 2017)

Test system: Amaranthus rudis Sauer (common waterhemp, AMATA)
Assay: Postemergence herbicidal weed control, fluroxypyr-meptyl and chlorimuron-ethyl, field trials (Table 3)
Assay type: in vivo
Experimental: Seeds of the desired test plant species were planted in a peat-based potting soil, Metro-Mix 360® in plastic pots with a surface area of 128 square centimeters (cm^2). Metro-Mix 360® consists of formulated Canadian sphagnum peat moss, coarse perlite, bark ash, a starter nutrient charge (with gypsum), a slow-release nitrogen and dolomitic limestone. The plants were grown for 7-19 days in a greenhouse with an approximate 14-hour (h) photoperiod which was maintained at about 29° C. during the day and 26° C. during the night. Nutrients and water were added on a regular basis and supplemental lighting was provided with overhead metal halide 1000-Watt lamps as necessary. The plants were treated with postemergence foliar applications when they reached the third to fourth true leaf stage. All treatments were applied using a randomized complete block trial design, with 4 replications per treatment.
Treatments consisted of the compounds as listed in Tables 1 to 4, each compound applied alone and in combination. Commercially formulated products of fluroxypyr-meptyl (STARANE™, 333 grams acid equivalent per liter (g ae/L) EC), diclosulam (SPIDER® 84WG), cloransulam-methyl (FIRSTRATE™ 84WG), chlorimuron-ethyl (CLASSIC® 25WG) and thifensulfuron-methyl (HARMONY® 50SG). Formulated amounts of fluroxypyr-meptyl, diclosulam, cloransulam-methyl, chlorimuron-ethyl and thifensulfuron-methyl were placed in 60 milliliter (mL) glass vials and dissolved in a volume of 30 or 60 mL of a water solution containing Agri-dex crop oil concentrate in a 1% volume per volume (v/v) ratio. Compound requirements are based upon either a 30- or a 60-mL application volume at a rate of 200 liters per hectare (L/ha). Spray solutions of the mixtures were prepared by adding the stock solutions to the appropriate amount of dilution solution to form either a 30- or a 60-mL spray solution with active ingredients in single and two-way combinations. Formulated compounds were applied to the plant material with an overhead Generation III Research Sprayer manufactured by DeVries Manufacturing in Hollandale, Minn., USA. The track sprayer was equipped with an 8003E nozzle calibrated to deliver 200 L/ha at a spray height of 18 inches (43 centimeters (cm)) above average plant canopy.
The treated plants and untreated control plants were placed in a greenhouse as described above and watered by sub-irrigation to prevent wash-off of the test compounds.
Treatments were rated at 7 to 21 days after application (DAA) as compared to the untreated control plants. Visual weed control was scored on a scale of 0 to 100 percent where 0 corresponds to no injury and 100 corresponds to complete kill.
Field trials were conducted using standard herbicide small plot research methodology. Plots varied from 3×3.3 meter (m) to 4.5×10 m (width×length) with 4 replicates per treatment. The crops used in the field trials were grown using normal cultural practices for land preparation, fertilization, seeding and maintenance to ensure good growth of the crop and the weeds.
All treatments in the field trials were applied using either pressurized air or carbon dioxide (CO2) backpack or bicycle sprayers calibrated to apply 100-187 L/ha spray volume. Flat Fan spray nozzles were used in all trials, with water as the diluent applied at 275-300 kilopascals (kPa). Weed sizes at application ranged from 10 to 40 cm tall. Commercially available products of fluroxypyr-meptyl (STARANE™, 180 and 333 g ae/L EC), diclosulam (SPIDER® 84WG), and thifensulfuron-methyl (HARMONY® 75WG) were mixed in water at appropriately formulated product rates to achieve the desired rates based on a unit area of application (hectare) to achieve the desired rates as shown. No adjuvants were tank-mixed with any treatments applied in the field trials. Treatments were rated at 14-26 days after application as compared to the untreated control plants. […]

CCCCCCC(C)OC(=O)COc1nc(F)c(Cl)c(N)c1Cl (centres unmarked) [Fluroxypyr-meptyl, fluroxypyr-methylheptyl ester]
Fluroxypyr-meptyl Mean % weed control (7DAA1, 25 g ae/ha): 25.0%
Fluroxypyr-meptyl Mean % weed control (14DAA1, 25 g ae/ha): 7.5%
